Assay results published in ChEMBL document CHEMBL4138123, “Design, synthesis and biological evaluation of novel pyrazolochalcones as potential modulators of PI3K/Akt/mTOR pathway and inducers of apoptosis in breast cancer cells” (Eur J Med Chem, 2017).

Key:
Assay type in all cases: functional
[1] = system: SK-MEL-5; experiment: Cytotoxicity against human SK-MEL-5 cells assessed as growth inhibition after 48 hrs by sulforhodamine B assay; conditions: SK-MEL-5, 48 h
[2] = system: UACC-62; experiment: Cytotoxicity against human UACC62 cells assessed as cell growth at 100 uM after 48 hrs by sulforhodamine B assay relative to control; conditions: UACC-62, 48 h, read-out: Activity
[3] = system: RPMI-8226; experiment: Cytotoxicity against human RPMI8226 cells assessed as cell growth at 0.01 uM after 48 hrs by sulforhodamine B assay relative to control; conditions: RPMI-8226, 48 h, read-out: Activity
[4] = system: SK-MEL-28; experiment: Cytotoxicity against human SK-MEL-28 cells assessed as cell growth at 0.1 uM after 48 hrs by sulforhodamine B assay relative to control; conditions: SK-MEL-28, 48 h, read-out: Activity
[5] = system: CCRF-CEM; experiment: Cytotoxicity against human CCRF-CEM cells assessed as cell growth at 1 uM after 48 hrs by sulforhodamine B assay relative to control; conditions: read-out: Activity
[6] = system: COLO 205; experiment: Cytotoxicity against human COLO205 cells assessed as cell growth at 100 uM after 48 hrs by sulforhodamine B assay relative to control; conditions: COLO 205, 48 h, read-out: Activity
[7] = system: KM12; experiment: Cytotoxicity against human KM12 cells assessed as cell growth at 1 uM after 48 hrs by sulforhodamine B assay relative to control; conditions: KM12, 48 h, read-out: Activity
[8] = system: NCI-H522; experiment: Cytotoxicity against human NCI-H522 cells assessed as growth inhibition after 48 hrs by sulforhodamine B assay; conditions: NCI-H522, 48 h
[9] = system: OVCAR-3; experiment: Cytotoxicity against human OVCAR3 cells assessed as cell growth at 0.01 uM after 48 hrs by sulforhodamine B assay relative to control; conditions: OVCAR-3, 48 h, read-out: Activity
[10] = system: HOP-62; experiment: Cytotoxicity against human HOP62 cells assessed as cell growth at 0.01 uM after 48 hrs by sulforhodamine B assay relative to control; conditions: HOP-62, 48 h, read-out: Activity
[11] = system: COLO 205; experiment: Cytotoxicity against human COLO205 cells assessed as cell growth at 1 uM after 48 hrs by sulforhodamine B assay relative to control; conditions: COLO 205, 48 h, read-out: Activity
[12] = system: NCI-H226; experiment: Cytotoxicity against human NCI-H226 cells assessed as cell growth at 10 uM after 48 hrs by sulforhodamine B assay relative to control; conditions: NCI-H226, 48 h, read-out: Activity
[13] = system: SK-MEL-5; experiment: Cytotoxicity against human SK-MEL-5 cells assessed as cell growth at 0.1 uM after 48 hrs by sulforhodamine B assay relative to control; conditions: SK-MEL-5, 48 h, read-out: Activity
[14] = system: 786-0; experiment: Cytotoxicity against human 786-0 cells assessed as cell growth at 0.01 uM after 48 hrs by sulforhodamine B assay relative to control; conditions: 786-0, 48 h, read-out: Activity
[15] = system: NCI-H460; experiment: Cytotoxicity against human NCI-H460 cells assessed as cell growth at 0.1 uM after 48 hrs by sulforhodamine B assay relative to control; conditions: NCI-H460, 48 h, read-out: Activity
[16] = system: UO-31; experiment: Cytotoxicity against human UO31 cells assessed as growth inhibition after 48 hrs by sulforhodamine B assay; conditions: UO-31, 48 h
[17] = system: NCI-H322M; experiment: Cytotoxicity against human NCI-H322M cells assessed as growth inhibition after 48 hrs by sulforhodamine B assay; conditions: for CC50: read-out: LC50 (the source's name)
[18] = system: NCI-H23; experiment: Cytotoxicity against human NCI-H23 cells assessed as cell growth at 10 uM after 48 hrs by sulforhodamine B assay relative to control; conditions: NCI-H23, 48 h, read-out: Activity
[19] = system: SF-268; experiment: Cytotoxicity against human SF268 cells assessed as cell growth at 0.1 uM after 48 hrs by sulforhodamine B assay relative to control; conditions: SF-268, 48 h, read-out: Activity
[20] = system: Malme-3M; experiment: Cytotoxicity against human MALME-3M cells assessed as growth inhibition after 48 hrs by sulforhodamine B assay
[21] = system: DU-145; experiment: Cytotoxicity against human DU145 cells assessed as cell growth at 1 uM after 48 hrs by sulforhodamine B assay relative to control; conditions: DU-145, 48 h, read-out: Activity
[22] = system: KM12; experiment: Cytotoxicity against human KM12 cells assessed as cell growth at 0.01 uM after 48 hrs by sulforhodamine B assay relative to control; conditions: KM12, 48 h, read-out: Activity
[23] = system: RXF 393; experiment: Cytotoxicity against human RXF393 cells assessed as cell growth at 1 uM after 48 hrs by sulforhodamine B assay relative to control; conditions: RXF 393, 48 h, read-out: Activity
[24] = system: MCF7; experiment: Cytotoxicity against human MCF7 cells assessed as cell growth at 0.01 uM after 48 hrs by sulforhodamine B assay relative to control; conditions: MCF7, 48 h, read-out: Activity
[25] = system: MDA-MB-435; experiment: Cytotoxicity against human MDA-MB-435 cells assessed as growth inhibition after 48 hrs by sulforhodamine B assay; conditions: MDA-MB-435, 48 h
[26] = system: TK-10; experiment: Cytotoxicity against human TK10 cells assessed as cell growth at 10 uM after 48 hrs by sulforhodamine B assay relative to control; conditions: TK-10, 48 h, read-out: Activity
[27] = system: TK-10; experiment: Cytotoxicity against human TK10 cells assessed as cell growth at 0.1 uM after 48 hrs by sulforhodamine B assay relative to control; conditions: TK-10, 48 h, read-out: Activity
[28] = system: MDA-MB-468; experiment: Cytotoxicity against human MDA-MB-468 cells assessed as growth inhibition after 48 hrs by sulforhodamine B assay; conditions: MDA-MB-468, 48 h
[29] = system: NCI-H322M; experiment: Cytotoxicity against human NCI-H322M cells assessed as cell growth at 1 uM after 48 hrs by sulforhodamine B assay relative to control; conditions: read-out: Activity
[30] = system: DU-145; experiment: Cytotoxicity against human DU145 cells assessed as cell growth at 10 uM after 48 hrs by sulforhodamine B assay relative to control; conditions: DU-145, 48 h, read-out: Activity
[31] = system: MDA-MB-231; experiment: Cytotoxicity against human MDA-MB-231 cells assessed as cell growth at 1 uM after 48 hrs by sulforhodamine B assay relative to control; conditions: MDA-MB-231, 48 h, read-out: Activity
[32] = system: HCT-116; experiment: Cytotoxicity against human HCT116 cells assessed as growth inhibition after 48 hrs by sulforhodamine B assay; conditions: HCT-116, 48 h
[33] = system: DU-145; experiment: Cytotoxicity against human DU145 cells assessed as growth inhibition after 48 hrs by sulforhodamine B assay; conditions: DU-145, 48 h; for CC50: read-out: LC50 (the source's name)
[34] = system: T47D; experiment: Cytotoxicity against human T47D cells assessed as cell growth at 100 uM after 48 hrs by sulforhodamine B assay relative to control; conditions: read-out: Activity
[35] = system: Malme-3M; experiment: Cytotoxicity against human MALME-3M cells assessed as cell growth at 100 uM after 48 hrs by sulforhodamine B assay relative to control; conditions: read-out: Activity

COc1ccc(C(=O)/C=C/c2cc(-c3cc(OC)c(OC)c(OC)c3)n[nH]2)cc1OC
LC50 (concentration killing 50% of cells) [1]: 5.59 µM | TGI [1]: 3.03 µM | growth at 100 µM [2]: -93% | growth at 0.01 µM [3]: 94% | growth at 0.1 µM [4]: 104% | growth at 1 µM [5]: 39% | growth at 100 µM [6]: -75% | growth at 1 µM [7]: 54% | LC50 [8]: 0.825 µM | TGI [8]: 0.39 µM | growth at 0.01 µM [9]: 100% | growth at 0.01 µM [10]: 101% | growth at 1 µM [11]: 95% | growth at 10 µM [12]: -81% | growth at 0.1 µM [13]: 96% | growth at 0.01 µM [14]: 96% | growth at 0.1 µM [15]: 101% | LC50 [16]: 5.17 µM | TGI [16]: 2.57 µM | TGI [17]: 2.9 µM | CC50 [17]: 5.51 µM | growth at 10 µM [18]: -36% | growth at 0.1 µM [19]: 89% | LC50 [20]: 6.79 µM | TGI [20]: 3.68 µM | growth at 1 µM [21]: 32% | growth at 0.01 µM [22]: 97% | growth at 1 µM [23]: 72% | growth at 0.01 µM [24]: 89% | LC50 [25]: 5.52 µM | TGI [25]: 2.71 µM | growth at 10 µM [26]: 100% | growth at 0.1 µM [27]: 90% | GI50 [28]: 0.75 µM | LC50 [28]: 5.21 µM | TGI [28]: 2.18 µM | growth at 1 µM [29]: 83% | growth at 10 µM [30]: -89% | growth at 1 µM [31]: 77% | TGI [32]: 2.63 µM | TGI [33]: 1.84 µM | CC50 [33]: 4.76 µM | growth at 100 µM [34]: -46% | growth at 100 µM [35]: -81%

COc1ccc(C(=O)/C=C/c2cc(-c3cc(OC)c(OC)c(OC)c3)n[nH]2)cc1
LC50 (concentration killing 50% of cells) [1]: 6.1 µM | TGI [1]: 3.24 µM | growth at 100 µM [2]: -48% | growth at 0.01 µM [3]: 98% | growth at 0.1 µM [4]: 104% | growth at 1 µM [5]: 62% | growth at 100 µM [6]: -81% | growth at 1 µM [7]: 83% | LC50 [8]: 6.97 µM | TGI [8]: 3.2 µM | growth at 0.01 µM [9]: 101% | growth at 0.01 µM [10]: 99% | growth at 1 µM [11]: 94% | growth at 10 µM [12]: -59% | growth at 0.1 µM [13]: 99% | growth at 0.01 µM [14]: 98% | growth at 0.1 µM [15]: 102% | LC50 [16]: 5.59 µM | TGI [16]: 2.84 µM | TGI [17]: 4.07 µM | growth at 10 µM [18]: 2% | growth at 0.1 µM [19]: 91% | TGI [20]: 3.85 µM | growth at 1 µM [21]: 76% | growth at 0.01 µM [22]: 99% | growth at 1 µM [23]: 67% | growth at 0.01 µM [24]: 101% | LC50 [25]: > 100 µM | TGI [25]: 5.69 µM | growth at 10 µM [26]: -29% | growth at 0.1 µM [27]: 93% | GI50 [28]: 1.29 µM | LC50 [28]: 5.45 µM | TGI [28]: 2.65 µM | growth at 1 µM [29]: 93% | growth at 10 µM [30]: -93% | growth at 1 µM [31]: 81% | LC50 [32]: > 100 µM | TGI [32]: 5.86 µM | TGI [33]: 2.83 µM | growth at 100 µM [34]: -9% | growth at 100 µM [35]: -2%

COc1cc(C(=O)/C=C/c2cc(-c3ccc4c(c3)OCO4)n[nH]2)cc(OC)c1OC
GI50 [1]: 3.32 µM | LC50 (concentration killing 50% of cells) [1]: 37.7 µM | TGI [1]: 13.3 µM | growth at 100 µM [2]: -96% | growth at 0.01 µM [3]: 101% | growth at 0.1 µM [4]: 99% | growth at 1 µM [5]: 83% | growth at 100 µM [6]: -74% | growth at 1 µM [7]: 93% | GI50 [8]: 1.59 µM | LC50 [8]: 7.3 µM | TGI [8]: 3.41 µM | growth at 0.01 µM [9]: 98% | growth at 0.01 µM [10]: 100% | growth at 1 µM [11]: 95% | growth at 10 µM [12]: -41% | growth at 0.1 µM [13]: 95% | growth at 0.01 µM [14]: 99% | growth at 0.1 µM [15]: 100% | GI50 [16]: 1.34 µM | LC50 [16]: 5.33 µM | TGI [16]: 2.67 µM | GI50 [17]: 2.09 µM | TGI [17]: 6.25 µM | CC50 [17]: 24.3 µM | growth at 10 µM [18]: 1% | growth at 0.1 µM [19]: 96% | GI50 [20]: 1.85 µM | LC50 [20]: 15.3 µM | TGI [20]: 4.69 µM | growth at 1 µM [21]: 97% | growth at 0.01 µM [22]: 97% | growth at 1 µM [23]: 67% | growth at 0.01 µM [24]: 89% | GI50 [25]: 2.28 µM | LC50 [25]: 22.5 µM | TGI [25]: 5.8 µM | growth at 10 µM [26]: -18% | growth at 0.1 µM [27]: 92% | GI50 [28]: 1.4 µM | LC50 [28]: 8.78 µM | TGI [28]: 3.5 µM | growth at 1 µM [29]: 84% | growth at 10 µM [30]: -4% | growth at 1 µM [31]: 83% | GI50 [32]: 1.9 µM | LC50 [32]: > 100 µM | TGI [32]: 4.63 µM | GI50 [33]: 2.92 µM | TGI [33]: 9.16 µM | CC50 [33]: 31.4 µM | growth at 100 µM [34]: -87% | growth at 100 µM [35]: -91%
